# Source: publication PMC5626781, “A Potent Tartrate Resistant Acid Phosphatase Inhibitor to Study the Function of TRAP in Alveolar Macrophages” (Scientific Reports, 2017)
# Key:
# [1] = system: RAW264.7 macrophages; test: Transwell migration, collagen-coated membrane; format: cell-based, mouse; conditions: AubipyOMe 80 nM, with or without RANKL 200 ng/ml
# Experimental: Migration of RAW264.7 macrophages was assessed using a transwell-culturing system with inserts (Sigma-Aldrich) coated with osteopontin (10 μg/ml, R&D). Bovine collagen-coated inserts (10 μg/ml, Advanced Biometrix, Carlsbad, USA) were used as matrix control. Cells were incubated with or without RANKL (200 ng/ml) for 72 hours to induce TRAP activity or not[75], in the presence or absence of AubipyOMe (80 nM) in quadruplicate. The previously described TRAP inhibitor 5-PNA (100 μM) was used as selective positive control for TRAP inhibition[15],[23]. The number of cells migrated to the lower well, including dead cells, was calculated relative to control cells and individual experiments were done at least six times. […]
# (§1) Transwell experiment to assess macrophage migration
# (§2) Migration of RAW264.7 macrophages was assessed using a transwell-culturing system with inserts (Sigma-Aldrich) coated with osteopontin (10 µg/ml, R&D). Bovine collagen-coated inserts (Advanced Biometrix, Carlsbad, USA) were used as a matrix control. […] The number of cells migrated to the lower well, including dead cells, was calculated relative to control cells and individual experiments were done at least six times. […]
# [2] = target: recombinant human TRAP5b (Homo sapiens, UniProt P13686); test: TRAP activity assay (PNPP) with recombinant TRAP5b; format: biochemical; conditions: pH 5.8, 30 min 37 °C, mean ± standard error, n = 3
# Experimental: (§3) Recombinant unspecified human TRAP was purchased from R&D (Minneapolis, USA). Recombinant human TRAP5a and 5b were produced and purified according to a protocol based on several sources[70]–[72] using an ÄKTApurifier™ 10 FPLC system (GE Healthcare, Danderyd, Sweden) as previously described.
# (§4) Inhibitor dilutions were prepared in acetate buffer from freshly prepared stock solutions (10 mM in DMSO). Recombinant unspecified TRAP (1.25 ng/ml, pH 4.5), TRAP5a (150 ng/mL, pH 5) or TRAP5b (150 ng/mL, pH 5.8) were incubated at 37 °C for 30 minutes with PNPP solution [10 mM PNPP, 200 mM sodium acetaat, 300 mM potassium chloride) at the indicated pH at a 1:1 ratio and increasing concentrations of NaAuCl4 (range 0–40 μM) or Au compounds (range 0–5.1 μM). To stop the reaction, 1M NaOH was added and absorption at 410 nm, with 490 nm as a reference value, was measured using a spectrophotometer.
# (§5) The inhibitory effects of gold compounds were calculated as the ratio of absorbance between the treated and untreated wells. The IC50 values were calculated using nonlinear curve fitting with a variable slope in Graphpad Prism 6 (Graphpad Software, la Jolla, USA). An average IC50 of three independent experiments was calculated.
# [3] = system: RAW264.7 macrophages; test: Live cell imaging of macrophage migration on osteopontin-coated wells; format: cell-based, mouse; conditions: AubipyOMe 80 nM
# Experimental: Briefly, RAW264.7 macrophages were plated on osteopontin-coated (10 μg/ml, R&D) Lab-tek chamber slides (Nunc, Hatfield, USA). Cells were incubated with or without RANKL (200 ng/ml) for 48 hours to induce TRAP activity or not[75], followed by labeling with carboxyfluorescein diacetate succinimidyl ester (CFSE, Invitrogen, Life Technologies Europe BV, Bleiswijk, The Netherlands) to visualize cells for live cell imaging using a confocal microscope (Solamere Nipkow Confocal Live Cell Imaging system, Solamere Technology Group, Salt lake city, USA). Cell movement was tracked overnight in the presence of 1% zymosan solution (Sigma-Aldrich), to stimulate cell movement, and with or without TRAP inhibitor AubipyOMe (80 nM). Pictures were taken every 10 min and were transformed into movies with Image J and Imaris x64 (Bitplane, Zurich, Switzerland) software.
# IC50 of four independent experiments was calculated.
# as §1, §2
# [4] = target: T1, recombinant human TRAP5a (Homo sapiens, UniProt P13686); test: TRAP activity assay (PNPP) with recombinant TRAP5a; format: biochemical; conditions: pH 5, 30 min 37 °C, mean ± standard error, n = 3
# T1 construct: made in house
# T1 sequence (P13686 22-325): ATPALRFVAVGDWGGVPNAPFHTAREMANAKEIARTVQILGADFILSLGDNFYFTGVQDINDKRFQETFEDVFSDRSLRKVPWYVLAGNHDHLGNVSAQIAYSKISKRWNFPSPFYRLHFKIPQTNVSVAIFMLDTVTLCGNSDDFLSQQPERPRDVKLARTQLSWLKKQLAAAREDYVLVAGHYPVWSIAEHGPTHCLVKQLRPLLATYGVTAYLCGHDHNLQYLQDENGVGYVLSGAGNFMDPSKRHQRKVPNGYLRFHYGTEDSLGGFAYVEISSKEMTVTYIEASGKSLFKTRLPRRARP
# Experimental: as §3, §4, §5
compound,measurement,setting,value
"COc1ccnc(-c2cc(OC)ccn2)c1.F[P-](F)(F)(F)(F)F.[Cl][Au+][Cl] [AubipyOMe, [Au(4,4′-dimethoxy-2,2′-bipyridine)Cl2][PF6]]",migration through collagen-coated membrane,[1],no effect
same,IC50,[2],1800 ± 300 nM
same,"migratory behavior of RANKL-pretreated macrophages, live cell tracking",[3]; RANKL 200 ng/ml 48 h,inhibited this migratory behavior
same,"migratory behavior of control cells, live cell tracking",[3]; no RANKL,did not affect the migratory behavior
same,IC50,[4],1300 ± 500 nM
